Results from ChEMBL document CHEMBL2375353, “Efficient induction of apoptosis in HeLa cells by a novel cationic porphycene photosensitizer” (Eur J Med Chem, 2013).
Active and inactive are the calls of the source. No cut-off for these calls is given here.

Tests used:
HeLa [1] = experiment: Induction of apoptosis in human HeLa cells assessed as reduction in F-actin expression at 0.75 to 0.5 uM incubated for 18 hrs by immunostaining assay; assay type: cell-based
HeLa [2] = experiment: Induction of apoptosis in human HeLa cells assessed as reduction in vinculin expression at 0.75 to 0.5 uM incubated for 18 hrs by immunostaining assay; assay type: cell-based
HeLa [3] = experiment: Induction of apoptosis in human HeLa cells assessed as reduction in F-actin expression at 0.5 uM incubated for 18 hrs followed by red light irradiation measured after 3 hrs by immunostaining assay; assay type: functional, cell-based
HeLa [4] = experiment: Induction of apoptosis in human HeLa cells assessed as reduction in vinculin expression at 0.5 uM incubated for 18 hrs followed by red light irradiation measured after 3 hrs by immunostaining assay; assay type: functional, cell-based
HeLa [5] = experiment: Induction of necrosis in human HeLa cells assessed as disorganization of F-actin at 0.75 uM incubated for 18 hrs followed by red light irradiation measured after 24 hrs by immunostaining; assay type: functional, cell-based
HeLa [6] = experiment: Induction of necrosis in human HeLa cells assessed as cellular damage at 0.75 uM incubated for 18 hrs followed by red light irradiation measured after 24 hrs; assay type: functional, cell-based
HeLa [7] = experiment: Induction of apoptosis in human HeLa cells assessed as reduction in vinculin expression at 0.5 uM incubated for 18 hrs followed by red light irradiation measured after 24 hrs by immunostaining assay; assay type: functional, cell-based
HeLa [8] = experiment: Induction of apoptosis in human HeLa cells assessed as membrane bubble at 0.5 uM incubated for 18 hrs followed by red light irradiation measured after 6 hrs by immunostaining assay; assay type: functional, cell-based
HeLa [9] = experiment: Induction of apoptosis in human HeLa cells assessed as apoptotic chromatin at 0.5 uM incubated for 18 hrs followed by red light irradiation measured after 6 hrs by immunostaining assay; assay type: functional, cell-based
HeLa [10] = experiment: Induction of apoptosis in human HeLa cells assessed as reduction in F-actin expression at 0.5 uM incubated for 18 hrs followed by red light irradiation measured after 6 hrs by immunostaining assay; assay type: functional, cell-based
HeLa [11] = experiment: Induction of apoptosis in human HeLa cells assessed as reduction in vinculin expression at 0.5 uM incubated for 18 hrs followed by red light irradiation measured after 6 hrs by immunostaining assay; assay type: functional, cell-based
HeLa [12] = experiment: Induction of apoptosis in human HeLa cells assessed as microtubule alteration at 0.75 uM incubated for 18 hrs followed by red light irradiation after 3 to 24 hrs by […]; assay type: functional, cell-based
HeLa [13] = experiment: Induction of apoptosis in human HeLa cells assessed as microtubule alteration at 0.5 uM incubated for 18 hrs followed by red light irradiation after 6 to 24 hrs by […]; assay type: functional, cell-based
HeLa [14] = experiment: Induction of apoptosis in human HeLa cells assessed as reduction in cell volume at 0.5 uM incubated for 18 hrs followed by red light irradiation measured after 3 hrs by Hoechst-33258 staining; assay type: functional, cell-based
HeLa [15] = experiment: Induction of necrosis in human HeLa cells at 0.5 to 0.75 uM incubated for 18 hrs by Hoechst-33258 staining; assay type: cell-based
HeLa [16] = experiment: Induction of necrosis in human HeLa cells at 0.75 uM incubated for 18 hrs followed by red light irradiation by Hoechst-33258 staining; assay type: functional, cell-based
HeLa [17] = experiment: Induction of apoptosis in human HeLa cells at 0.5 uM incubated for 18 hrs followed by red light irradiation by Hoechst-33258 staining; assay type: functional
HeLa [18] = experiment: Induction of apoptosis in human HeLa cells assessed as membrane blebbing at 0.5 uM incubated for 18 hrs prior to red light irradiation measured after 6 hrs by phase contrast microscopy; assay type: functional, cell-based
HeLa [19] = experiment: Induction of apoptosis in human HeLa cells assessed as fragmented chromatin at 0.5 uM incubated for 18 hrs prior to red light irradiation measured after 6 hrs by immunofluorescence method; assay type: functional, cell-based
HeLa [20] = experiment: Induction of apoptosis in human HeLa cells assessed as swollen mitochondria at 0.5 uM incubated for 18 hrs prior to red light irradiation measured after 3 hrs by immunofluorescence method; assay type: functional, cell-based
HeLa [21] = experiment: Induction of apoptosis in human HeLa cells at 0.5 uM incubated for 18 hrs prior to red light irradiation measured after 6 hrs by TUNEL assay; assay type: functional, cell-based
HeLa [22] = experiment: Induction of apoptosis in human HeLa cells at 0.5 uM incubated for 18 hrs prior to red light irradiation measured after 24 hrs; assay type: functional
HeLa [23] = experiment: Induction of apoptosis in human HeLa cells assessed as relocalization of proapoptotic Bax protein within mitochondria at 0.5 uM incubated for 18 hrs prior to red light irradiation measured after 3 to 24 hrs by indirect immunofluorescence; assay type: functional, cell-based
HeLa [24] = experiment: Induction of necrosis in human HeLa cells assessed as breaking of giant bubble at 0.75 uM incubated for 18 hrs prior to red light irradiation measured after 6 hrs by phase contrast microscopy; assay type: functional, cell-based
HeLa [25] = experiment: Induction of necrosis in human HeLa cells assessed as chromatin condensation at 0.75 uM incubated for 18 hrs prior to red light irradiation measured after 1 hr by Hoechst-33258 staining; assay type: functional, cell-based
HeLa [26] = experiment: Induction of necrosis in human HeLa cells assessed as giant bubble formation at 0.75 uM incubated for 18 hrs prior to red light irradiation measured after 1 hr by phase contrast microscopy; assay type: functional, cell-based
HeLa [27] = experiment: Induction of necrosis in human HeLa cells at 0.5 uM incubated for 18 hrs prior to red light irradiation measured after 6 to 24 hrs by Hoechst-33258 staining; assay type: functional, cell-based
HeLa [28] = experiment: Induction of necrosis in human HeLa cells at 0.5 uM incubated for 18 hrs prior to red light irradiation measured after 6 to 24 hrs by neutral red staining; assay type: functional, cell-based
HeLa [29] = experiment: Induction of apoptosis in human HeLa cells at 0.5 uM incubated for 18 hrs prior to red light irradiation measured after 6 to 24 hrs by Hoechst-33258 staining; assay type: functional, cell-based
HeLa [30] = experiment: Induction of apoptosis in human HeLa cells at 0.5 uM incubated for 18 hrs prior to red light irradiation measured after 6 to 24 hrs by neutral red staining; assay type: functional, cell-based
HeLa [31] = experiment: Induction of apoptosis in human HeLa cells assessed as nuclear fragmentation at 0.5 uM incubated for 18 hrs prior to red light irradiation measured after 3 hrs by Hoechst-33258 staining; assay type: functional, cell-based
HeLa [32] = experiment: Induction of apoptosis in human HeLa cells assessed as chromatin condensation at 0.5 uM incubated for 18 hrs prior to red light irradiation measured after 3 hrs by Hoechst-33258 staining; assay type: functional, cell-based

## COCc1ccc(C2=Cc3nc2ccc2[nH]c(cc2-c2ccc(C[n+]4ccccc4)cc2)c2nc(ccc4[nH]c3cc4-c3ccc(C[n+]4ccccc4)cc3)C(c3ccc(C[n+]4ccccc4)cc3)=C2)cc1.[Br-].[Br-].[Br-]
HeLa [1]
  Activity: Non-toxic
HeLa [2]
  Activity: Non-toxic
HeLa [3]
  Activity: Active
HeLa [4]
  Activity: Active
HeLa [5]
  Activity: Active
HeLa [6]
  Activity: Active
HeLa [7]
  Activity: Active
HeLa [8]
  Activity: Active
HeLa [9]
  Activity: Active
HeLa [10]
  Activity: Active
HeLa [11]
  Activity: Active
HeLa [12]
  Activity: Active
HeLa [13]
  Activity: Active
HeLa [14]
  Activity: Active
HeLa [15]
  Activity: Non-toxic
HeLa [16]
  Activity: Active
HeLa [17]
  Activity: 70%
HeLa [18]
  Activity: Active
HeLa [19]
  Activity: Active
HeLa [20]
  Activity: Active
HeLa [21]
  Activity: Active
HeLa [22]
  Activity: 70%
HeLa [23]
  Activity: Active
HeLa [24]
  Activity: Active
HeLa [25]
  Activity: Active
HeLa [26]
  Activity: Active
HeLa [27]
  Activity: Active
HeLa [28]
  Activity: Active
HeLa [29]
  Activity: Active
HeLa [30]
  Activity: Active
HeLa [31]
  Activity: Active
HeLa [32]
  Activity: Active
